According to US12404232B2, “Compounds and compositions for intracellular delivery of therapeutic agents” (ModernaTX, Inc., priority 2015, dated 2025):

Tests used:
mice = assay: Luc expression (bioluminescence, total flux) after intravenous administration to mice; type: in vivo; conditions: for AUC (p/s*h): Luc total flux (Table 3D); for 6 h Lipid/MC3 G.M. Luc Expression / AUC (h*p/s): i.v. administration; for 6 h Lipid/MC3 G.M. Luc Expression: geometric mean; for AUC (h*p/s): total Luc flux (Table 3C)
Experimental: In order to monitor how effectively various nanoparticle compositions deliver therapeutic and/or prophylactics to targeted cells, different nanoparticle compositions including a particular therapeutic and/or prophylactic (for example, a modified or naturally occurring RNA such as an mRNA) are prepared and administered to rodent populations. Mice are intravenously, intramuscularly, intraarterially, or intratumorally administered a single dose including a nanoparticle composition with a formulation such as those provided in Example 3. In some instances, mice may be made to inhale doses. Dose sizes may range from 0.001 mg/kg to 10 mg/kg, where 10 mg/kg describes a dose including 10 mg of a therapeutic and/or prophylactic in a nanoparticle composition for each 1 kg of body mass of the mouse. A control composition including PBS may also be employed.
Upon administration of nanoparticle compositions to mice, dose delivery profiles, dose responses, and toxicity of particular formulations and doses thereof can be measured by enzyme-linked immunosorbent assays (ELISA), bioluminescent imaging, or other methods. For nanoparticle compositions including mRNA, time courses of protein expression can also be evaluated. Samples collected from the rodents for evaluation may include blood, sera, and tissue (for example, muscle tissue from the site of an intramuscular injection and internal tissue); sample collection may involve sacrifice of the animals.
The efficacy of the nanoparticle compositions presented in Table 1A was evaluated with a bioluminescence study. Formulations were administered intravenously to mice (n=6) at a dosage of 0.5 mg/kg (mpk) and bioluminescence measured at 3, 6, and 24 hour time points. The standard MC3 formulation and, in some instances, a control (e.g., a PBS control) were evaluated for comparison. […] In general, flux decreased as time progressed to less than 10% of the initial flux.
The total flux (measured by area under the curve, AUC) induced by administration of a formulation including a given lipid relative to that induced by administration of a formulation including MC3 was also measured for several lipids.
The tolerability and efficacy of nanoparticle compositions to non-human primates was also investigated using sample formulations including Compounds 18, 25, 26, and 48 and MC3 to determine if these compounds are differentiated in terms of protein expression. The formulations were prepared according to the standard MC3 formulation described above and included an hEPO mRNA. Table 30 includes details of the compositions tested, while Table 31 summarizes the relative expression of Luc and hEPO mRNA in mice and rats. Expression was measured 6 hours after administration.

[1] = Particle size and polydispersity index of nanoparticle compositions (Zetasizer Nano ZS); type: physicochemical
Text: Nanoparticle compositions may be characterized by a variety of methods. For example, microscopy (e.g., transmission electron microscopy or scanning electron microscopy) may be used to examine the morphology and size distribution of a nanoparticle composition. Dynamic light scattering or potentiometry (e.g., potentiometric titrations) may be used to measure zeta potentials. Dynamic light scattering may also be utilized to determine particle sizes. Instruments such as the Zetasizer Nano ZS (Malvern Instruments Ltd, Malvern, Worcestershire, UK) may also be used to measure multiple characteristics of a nanoparticle composition, such as particle size, polydispersity index, and zeta potential.
A Zetasizer Nano ZS (Malvern Instruments Ltd, Malvern, Worcestershire, UK) can be used to determine the particle size, the polydispersity index (PDI) and the zeta potential of the nanoparticle compositions in 1×PBS in determining particle size and 15 mM PBS in determining zeta potential.
Initial studies were performed to compare the delivery efficiency of nanoparticle compositions including various compounds according to Formula (I), (IA), (II), (IIa), (IIb), (IIc), (IId) or (IIe). The cationic lipid MC3 is a current standard in the art. Accordingly, the standard MC3 formulation including about 50 mol % MC3, about 10 mol % DSPC, about 38.5 mol % cholesterol, and about 1.5 mol % PEG-DMG was used as a basis for this study. Nanoparticle compositions including DSPC as a phospholipid, cholesterol as a structural lipid, PEG-DMG as a PEG lipid, an RNA, and a compound according to Formula (I), (IA), (II), (IIa), (IIb), (IIc), (IId) or (IIe) selected from Compounds 1-159, 168-170, and 173-175 were prepared according to or via methods similar to those described in Examples 1 and 2. The ratios of the lipids were 50:10:38.5:1.5 mol % for the lipid according to Formula (I), (IA), (II), (IIa), (IIb), (IIc), (IId) or (IIe):DSPC:cholesterol:PEG-DMG. The RNA used was an mRNA encoding G5 luciferase (Luc) or G5 hEPO. Tables 1A-1B summarize the content and characteristics of the formulations. […]

CCCCCCCCCOC(=O)CCCCCCCN(CCCCCCCC(=O)OC(CCCCCCCC)CCCCCCCC)C(CO)CO [Compound 156, Heptadecan-9-yl 8-((1,3-dihydroxypropan-2-yl)(8-(nonyloxy)-8-oxooctyl)amino)octanoate]
AUC (p/s*h) (mice): 1.170E+011 p/s*h | PDI ([1]; nanoparticle composition 50:10:38.5:1.5 mol % (Table 1A)): 0.072 | Size (nm) ([1]; nanoparticle composition lipid:DSPC:cholesterol:PEG-DMG 50:10:38.5:1.5 mol %, mRNA encoding Luc or hEPO (Table 1A)): 74.3 nm

CCCCCCCCC(CCCCCCCC)OC(=O)CCCCCCCN(CCO)CCCCCC(=O)N(C)CCCCCCCC [Compound 146, Heptadecan-9-yl 8-((2-hydroxyethyl)(6-(methyl(octyl)amino)-6-oxohexyl)amino)octanoate]
6 h Lipid/MC3 G.M. Luc Expression (mice): 0.012 | AUC (h*p/s) (mice): 1.04E+09 h*p/s

CCCCCCCCCOC(=O)CCCCCCCN(CCCCCCCC(=O)OC(CCCCCCCC)CCCCCCCC)CCN1CCN(C)CC1 [Compound 101, Heptadecan-9-yl 8-((2-(4-methylpiperazin-1-yl)ethyl)(8-(nonyloxy)-8-oxooctyl)amino)octanoate]
6 h Lipid/MC3 G.M. Luc Expression (mice): 0.011 | AUC (h*p/s) (mice): 1.8E+09 h*p/s

CCCCCCCCCOC(=O)CCCCCCCN(CCO)CCCCCCCCCC(CCCCCCCC)CCCCCCCC [Compound 153, Nonyl 8-((2-hydroxyethyl)(10-octyloctadecyl)amino)octanoate]
AUC (p/s*h) (mice): 2.697E+011 p/s*h

CCCCCCCCC(CCCCCC)C(=O)OCCCCCCCCCN(CCO)CCCCCCCCCOC(=O)C(CCCCCC)CCCCCCCC (stereo not shown) [Compound 133, ((2-Hydroxyethyl)azanediyl)bis(nonane-9,1-diyl)bis(2-hexyldecanoate)]
6 h Lipid/MC3 G.M. Luc Expression (mice): 4.18 | AUC (h*p/s) (mice): 3.62E+11 h*p/s

CCCCCCCCCOC(=O)CCCCCCCN(CCCCCCCC(=O)OC(CCCCCCCC)CCCCCCCC)CCN1CCOCC1 [Compound 103, Heptadecan-9-yl 8-((2-morpholinoethyl)(8-(nonyloxy)-8-oxooctyl)amino)octanoate]
6 h Lipid/MC3 G.M. Luc Expression (mice): 0.171 | AUC (h*p/s) (mice): 2.4E+10 h*p/s

CCCCCCCCCC(=O)OCCCCCCCN(CCO)CCCCCCCC(=O)OC(CCCCCCCC)CCCCCCCC [Compound 96, 7-((8-(Heptadecan-9-yloxy)-8-oxooctyl)(2-hydroxyethyl)amino)heptyl decanoate]
AUC (p/s*h) (mice): 1.209E+012 p/s*h

CCCCCCCCCOC(=O)CCCCCCCN(CCO)CCCCCCCC(=O)OC(C)(C)C [Compound 158, tert-Butyl 8-((2-hydroxyethyl)(8-(nonyloxy)-8-oxooctyl)amino)octanoate]
AUC (p/s*h) (mice): 1.211E+007 p/s*h

CCCCCCCCC(CCCCCCCC)OC(=O)CCCCCCCN(C)CCCCCCCCCC(=O)OCCCCCCC [Compound 149, Heptyl 10-((8-(heptadecan-9-yloxy)-8-oxooctyl)(methyl)amino)decanoate]
AUC (p/s*h) (mice): 1.057E+011 p/s*h

CCCCCCCCC(CCCCCCCC)OC(=O)CCCCCCCN(C)CCCCCCCCCCCC(=O)OCCCCC [Compound 150, Pentyl 12-((8-(heptadecan-9-yloxy)-8-oxooctyl)(methyl)amino)dodecanoate]
AUC (p/s*h) (mice): 2.704E+011 p/s*h

CCCCCCCCC(C)OC(=O)CCCCCCCN(CCO)CCCCCCCOC(=O)C(CCCCCCCC)CCCCCCCC (stereo not shown) [Compound 135, 7-((8-(Decan-2-yloxy)-8-oxooctyl)(2-hydroxyethyl)amino)heptyl 2-octyldecanoate]
6 h Lipid/MC3 G.M. Luc Expression (mice): 10.5 | AUC (h*p/s) (mice): 1.25E+12 h*p/s

CCCCCCCCCOC(=O)CCCCCCCN(CCO)CCCCCCCCCOC(=O)C(CCCCCC)CCCCCCCC (stereo not shown) [Compound 134, 9-((2-Hydroxyethyl)(8-(nonyloxy)-8-oxooctyl)amino)nonyl 2-hexyldecanoate]
6 h Lipid/MC3 G.M. Luc Expression (mice): 3.27 | AUC (h*p/s) (mice): 3.43E+11 h*p/s

CCCCCCCCC(CCCCCCCC)OC(=O)CCCCCCCN(CCO)CCCCCCCC(=O)N(C)CCCCCCCC [Compound 145, Heptadecan-9-yl 8-((2-hydroxyethyl)(8-(methyl(octyl)amino)-8-oxooctyl)amino)octanoate]
6 h Lipid/MC3 G.M. Luc Expression (mice): 0.979 | AUC (h*p/s) (mice): 8.1E+10 h*p/s

CCCCCCCCCOC(=O)CCCCCCCN(CCO)CCCCCCCOP(=O)(OCCCCCCCC)OCCCCCCCC [Compound 131, Nonyl 8-((7-((bis(octyloxy)phosphoryl)oxy)heptyl)(2-hydroxyethyl)amino)octanoate]
6 h Lipid/MC3 G.M. Luc Expression (mice): 1.27 | AUC (h*p/s) (mice): 9.29E+10 h*p/s

CCCCCCCCCOC(=O)CCCCCCCN(CCO)CCN(CCO)CCCCCCCC(=O)OC(CCCCCCCC)CCCCCCCC [Compound 159, Heptadecan-9-yl 8-((2-hydroxyethyl)(2-((2-hydroxyethyl)(8-(nonyloxy)-8-oxooctyl)amino)ethyl)amino)octanoate]
AUC (p/s*h) (mice): 1.355E+008 p/s*h

CCCCCCCCCOC(=O)CCCCCCCN(CCCCCCCC(=O)OC(CCCCCCCC)CCCCCCCC)CCOCCO [Compound 154, Heptadecan-9-yl 8-((2-(2-hydroxyethoxy)ethyl)(8-(nonyloxy)-8-oxooctyl)amino)octanoate]
AUC (p/s*h) (mice): 5.560E+010 p/s*h

CCCCCCCCC(CCCCCCCC)OC(=O)CCCCCCCN(CCO)CCCCCCCC(=O)OC1CCC(CCCCC)CC1 (stereo not shown) [Compound 66, Heptadecan-9-yl 8-((2-hydroxyethyl)(8-oxo-8-((4-pentylcyclohexyl)oxy)octyl)amino)octanoate]
6 h Lipid/MC3 G.M. Luc Expression (mice): 5.23 | AUC (h*p/s) (mice): 6.76E+11 h*p/s

CCCCCCCCCOC(=O)CCCCCCCN(CCO)CCCCCCC/C=C\C(CCCCCCCC)CCCCCCCC [Compound 152, Nonyl (Z)-8-((2-hydroxyethyl)(10-octyloctadec-8-en-1-yl)amino)octanoate]
AUC (p/s*h) (mice): 2.855E+010 p/s*h

CCCCCCCCCOC(=O)CCCCCCCN(CCO)CCCCCCCCCC(=O)OC(CCCCCC)CCCCCC [Compound 147, Tridecan-7-yl 10-((2-hydroxyethyl)(8-(nonyloxy)-8-oxooctyl)amino)decanoate]
6 h Lipid/MC3 G.M. Luc Expression (mice): 8.13 | AUC (h*p/s) (mice): 5.63E+11 h*p/s
